“Also recorded” adds a separate entry of the source. Like-named read-outs stand apart in the source and are kept apart here.
Columns and labels:
[1] = tested on: SK-Mel-28 cells; assay: Long term toxicity (viability assay up to 25 days); assay type: cell-based, human
Method: (§1) Viability assay was conducted in 96 well microtiter plates seeded with 3000 cells. Cell viability was measured using CellTiter-Glo assay (Promega), according to the manufacturer's instructions. Luminescence was measured using Victor3 FA (Perkin Elmer) microtiter plate reader. Total luminescence was normalized relative to negative control and curve fitting performed using GraphPad Prism (v6.02) software. IC50 was determined using Cell Viability assay, and data was illustrated using GraphPad Prism (version 6.02)
(§2) SK-Mel-28 and Panc-1 cells were plated on 96 well plates. Three hours post-seeding, cells were treated with 10 µM, 1 µM, 0.1 µM and 0.01 µM of S2 or vehicle (DMSO). Viability assay was conducted after 24 h, 72 h, 5 days, 10 days, 15 days, 20 days and 25 days, as described above. Media was changed every two days. […] Cell viability at each concentration was quantified relative to DMSO control at any time point (each time point had its own control), and was presented as fraction of control. Each treatment and the adequate control and was performed in 3, 4 and 6 repeats. Error bars indicate standard error (SE).
as §2, with “Vacquionol-1 SR (S2)” for “S2”

[2] = tested on: Panc-1 cells; assay: Long term toxicity (viability assay up to 25 days); assay type: cell-based, human
Method: as §1, §2
as §2, with “Vacquionol-1 SR (S2)” for “S2”

[3] = tested on: SK-Mel-28 cells; assay: Vacuolization, bright field microscopy; assay type: cell-based, human; settings: SK-Mel-28, 5µM or 10µM, 18h
Method: (§3) The human melanoma cell line SK-MEL-28 is a well established reference cell line in melanoma research (Goodfellow M, et al. J. Natl. Cancer Inst. 59: 221-226, 1977). Cells were cultured in MEM supplemented with 10% FCS. Glioblastoma cell line (U3013) was generated directly from patient-derived tumors (Kitambi et al. Cell. 2014: 157(2):313-28) and grown in serum-free media supplemented with N2, B27, EGF, and FGF-2 (20 ng/ml) using previously described methodology (Pollard et al., 2009).
(§4) Cells were plated on glass slides and were treated with compound at the indicated concentrations for 18h before imaging. Digital images were taken using a Veleta camera (Olympus Soft Imaging Solutions).

[4] = tested on: KPC cells; assay: Vacuolization, bright field microscopy; assay type: cell-based, mouse; settings: 5µM (3.3 µM elsewhere in the source) or 10µM, 18h
Method: as §4

[5] = tested on: glioblastoma cell line U3013; assay: ATP viability assay (CellTiter-Glo); assay type: cell-based, human; settings: U3013, dose response, CellTiterGlo ATP quantification
Method: as §3
Culture plates were pre-coated with laminin (Sigma) for 3 hr at 10 ug/ml prior to use and confluent cells were split 1:3 to 1:5 using TrypLE Express (Invitrogen).
as §1

[6] = Pharmacokinetic evaluation in mice (plasma and brain); assay type: in vivo, male NMRI mice; settings: for Kp / Tmax / Cmax: male, NMRI, mouse; for Kp: brain/plasma, single oral administration of 20 mg/kg
Method: Compounds S1 and S2 were formulated at 0.4 mg/mL in 7.5% NMP, 10% Kolliphor in 0.9% NaCl (for i.v. administration) and at 2.0 mg/mL in 0.1% Tween 80, 0.5% Na-CMC in water (for p.o. administration).
The pharmacokinetic properties of S1 and S2 were determined in male NMRI mice (Charles River, Germany) following single intravenous (i.v., tail vein, 2 mg/kg) or per oral (p.o, gavage, 20 mg/kg). Light isoflurane anaesthesia was used at i.v. administration, no anaesthesia was used at p.o. administration. Blood samples were kept on ice after sampling and centrigued at +4 °C, 1800 x g for 5 minutes to prepare plasma. Blood and homogenized brain samples were taken from animals at the following nominal time points: 15, 30, and 60 minutes, and 2, 4, 6, 8, 24, 48, 72 and 144 hours after dosing (n=3 samples/time-point). Blood sampling (400-600 microliters) was performed by orbital plexus collection under isoflurane anaesthesia into EDTA plasma tubes (BD Microtainer K2EDTA). Bioanalytical quantification of S1 and S2 was analysed in plasma and brain samples by a UPLC-MS/MS. Pharmacokinetics were calculated by non-compartmental analysis (NCA) from composite (mean) profiles using Phoenix WinNonlin Professional (v 6.3). Nominal sampling times and dose levels have been used for the NCA calculations. All animals dosed with S1 and S2 were systemically exposed to the test compound. The plasma and brain concentrations were detectable and analysed until 144 h.
Brain sampling was performed after the end of blood sampling at the specified time points following euthanization and skull extraction. Brains were weighed and placed in test tubes and placed on wet ice. 4 mL PBS (pH 7.4) per 1 g of brain tissue was added to the test tube and brains were then homogenized using an Ultra-Turrax T25 homogenisator (Setting 2, 9500 rpm, 10s). The homogenates were frozen at -20° C immediately after homogenization.

[7] = tested on: Panc-1 cells; assay: Vacuolization, bright field microscopy; assay type: cell-based, human; settings: Panc-1, 5µM or 10µM, 18h
From the text: The following well-characterized human pancreatic ductal adenocarcinoma cell lines (ATCC) were used: HPAF II, BxPC-3, MIA-PaCa2 and Panc-1. These cell lines were generated from patient-derived tumors and are widely used model system to study pancreatic cancer (HPAF II: Kim YW, et al. Pancreas 4: 353-362, 1989; BxPC-3: Tan MH, et al. Cancer Invest. 4: 15-23, 1986; MIA-PaCa2: Yunis AA, et al. Int. J. Cancer 19: 128-135, 1977; Pacn-1: Lieber M, et al. Int. J. Cancer 15: 741-747, 1975).
as §4

[8] = tested on: SK-Mel-28; assay: ATP viability assay (CellTiter-Glo); assay type: cell-based; settings: Homo sapiens
Method: as §3, §1

For `O[C@@H](c1cc(-c2ccc(Cl)cc2)nc2ccccc12)[C@H]1CCCCN1` [S2, (S)-(2-(4-chlorophenyl)quinolin-4-yl)((R)-piperidin-2-yl)methanol], the long term toxicity ([1]; SK-Mel-28, 10, 1, 0.1, 0.01 µM, up to 25 days) was “dose-dependent cytotoxic effect”, the “long term toxicity, lower concentrations” value ([1]; SK-Mel-28, long term exposure of lower concentrations) was “complete death of the cells” and the long term toxicity ([2]; Panc-1, 10, 1, 0.1, 0.01 µM, up to 25 days) was “dose-dependent cytotoxic effect”. The “long term toxicity, lower concentrations” value ([2]; Panc-1, long term exposure, 1µM) was “complete death”, the vacuole formation [3] was “stimulate vacuole formation” and the vacuole formation ([3]; listed as Vacquinol-1 SR (S2)) was “stimulates vacuole formation”. For the same compound, the vacuole formation [4] was “stimulate vacuole formation”, the vacuole formation ([4]; listed as Vacquinol-1 SR (S2)) was “stimulates vacuole formation” and the “in vitro cytotoxicity, comparison of isolated isomers” value (“in vitro cytotoxicity, comparison” below) [5] was “S1 and S2 exhibit greater in vitro oncolytic potency than the corresponding S3 and S4 isomers; also recorded: S1 and S2 exhibit higher cytotoxicity on cancer cells than S3 and S4”. The “Brain AUC last” value ([6]; brain, i.v., 2 mg/kg) was 9050 ng·h/mL, the “Brain Cmax” value ([6]; brain, i.v., 2 mg/kg) was 777 ng/mL and the “Brain tlast” value ([6]; brain, i.v., 2 mg/kg) was 72 h. The “Brain AUC last” value ([6]; brain, p.o., 20 mg/kg) was 157000 ng·h/mL, the “Brain Cmax” value ([6]; brain, p.o., 20 mg/kg) was 1490 ng/mL and the “Brain tlast” value ([6]; brain, p.o., 20 mg/kg) was 144 h. The Kp ([6]; po, 20 mg/kg, read-out: exposure ratio AUC(brain/plasma)) was 0.9, the Kp ([6]; po, 20 mg/kg, read-out: exposure ratio Cmax(brain/plasma)) was 0.7 and the Tmax ([6]; iv, brain, i.v., 2 mg/kg, read-out: Brain tmax) was 1 h. The Cmax ([6]; iv, plasma, 2 mg/kg) was 455 ng/mL, the Tmax ([6]; iv, plasma, i.v., 2 mg/kg, read-out: Plasma tmax) was 0.5 h and the Tmax ([6]; po, brain, p.o., 20 mg/kg, read-out: Brain tmax) was 6 h. For the same compound, the Cmax ([6]; po, plasma, 20 mg/kg) was 2050 ng/mL, the Tmax ([6]; po, plasma, p.o., 20 mg/kg, read-out: Plasma tmax) was 8 h and the “Plasma AUC last” value ([6]; plasma, i.v., 2 mg/kg) was 14100 ng·h/mL. The “Plasma tlast” value ([6]; plasma, i.v., 2 mg/kg) was 72 h, the “Plasma AUC last” value ([6]; plasma, p.o., 20 mg/kg) was 183000 ng·h/mL and the “Plasma tlast” value ([6]; plasma, p.o., 20 mg/kg) was 144 h. For the same compound, the vacuole formation [7] was “stimulate vacuole formation”, the vacuole formation ([7]; listed as Vacquinol-1 SR (S2)) was “stimulates vacuole formation” and the IC50 ([8]; SK-MEL-28, 24 h) was 3.6 µM. The IC50 ([8]; SK-MEL-28, 48 h) was 2.4 µM and the IC50 ([8]; SK-MEL-28, 72 h) was 2.1 µM.

With `O[C@H](c1cc(-c2ccc(Cl)cc2)nc2ccccc12)[C@H]1CCCCN1` [S3, (R)-(2-(4-chlorophenyl)quinolin-4-yl)((R)-piperidin-2-yl)methanol] the “in vitro cytotoxicity, comparison” value [5] was “S1 and S2 exhibit greater in vitro oncolytic potency than the corresponding S3 and S4 isomers; also recorded: S1 and S2 exhibit higher cytotoxicity on cancer cells than S3 and S4”.

With `O[C@@H](c1cc(-c2ccc(Cl)cc2)nc2ccccc12)[C@@H]1CCCCN1` [S4, (S)-(2-(4-chlorophenyl)quinolin-4-yl)((S)-piperidin-2-yl)methanol] the “in vitro cytotoxicity, comparison” value [5] was “S1 and S2 exhibit greater in vitro oncolytic potency than the corresponding S3 and S4 isomers; also recorded: S1 and S2 exhibit higher cytotoxicity on cancer cells than S3 and S4”.

Reference: EP3064205A1, “Therapeutic use of isomeric forms of 2-(4-chlorophenyl)quinolin-4-yl)(piperidin-2-yl)methanol” (Glionova AB, priority 2015, dated 2016)
